Measurements from ChEMBL document CHEMBL5247634, “Design, synthesis and anticancer evaluation of selective 2,4-disubstituted pyrimidine CDK9 inhibitors” (Eur J Med Chem, 2022).
Values belong to the compound of their own block, whether it stands above or below them. Activity calls are given as the source filed them. No cut-off for these calls is given here.

Assays:
HCT-116 = experiment: Antiproliferative activity against human HCT-116 cells assessed as cell growth inhibition measured after 72 hrs by MTT assay; assay type: functional, cell-based; details: HCT-116, 72 h
PANC-1 [1] = experiment: Antiproliferative activity against human PANC-1 cells assessed as cell growth inhibition measured after 72 hrs by MTT assay; assay type: functional, cell-based; details: PANC-1, 72 h
A-431 = experiment: Antiproliferative activity against human A-431 cells assessed as cell growth inhibition measured after 72 hrs by MTT assay; assay type: functional, cell-based; details: A-431, 72 h
L02 = experiment: Antiproliferative activity against human L02 cells assessed as cell growth inhibition measured after 72 hrs by MTT assay; assay type: functional, cell-based; details: L02, 72 h
NCI-H1975 = experiment: Antiproliferative activity against human NCI-H1975 cells assessed as cell growth inhibition measured after 72 hrs by MTT assay; assay type: functional, cell-based; details: NCI-H1975, 72 h
[2] = target: Cyclin-dependent kinase 2 (Homo sapiens, UniProt P24941)
Description: Inhibition of CDK2 (unknown origin)

A549 = experiment: Antiproliferative activity against human A549 cells assessed as cell growth inhibition measured after 72 hrs by MTT assay; assay type: functional, cell-based; details: A549, 72 h
Homo sapiens = species: Homo sapiens; experiment: Selectivity index, ratio of IC50 for CDK2/cyclin A (unknown origin) to IC50 for CDK9/cyclin T1 (unknown origin)
[3] = target: Cyclin-dependent kinase 2/cyclin A (Homo sapiens, UniProt P24941); experiment: Inhibition of CDK2/cyclin A (unknown origin) incubated for 1 hr in presence of ATP by ADP-glo luminescent assay; assay type: protein-complex assay
CDK9/cyclin T1 = CDK9/cyclin T1 (Homo sapiens, UniProt P50750); experiment: Inhibition of CDK9/cyclin T1 (unknown origin) using as PDKtide substrate incubated for 1 hr in presence of ATP by ADP-glo luminescent assay; assay type: protein-complex assay
CDK9/cyclin T1, sequence (O60563 whole entry): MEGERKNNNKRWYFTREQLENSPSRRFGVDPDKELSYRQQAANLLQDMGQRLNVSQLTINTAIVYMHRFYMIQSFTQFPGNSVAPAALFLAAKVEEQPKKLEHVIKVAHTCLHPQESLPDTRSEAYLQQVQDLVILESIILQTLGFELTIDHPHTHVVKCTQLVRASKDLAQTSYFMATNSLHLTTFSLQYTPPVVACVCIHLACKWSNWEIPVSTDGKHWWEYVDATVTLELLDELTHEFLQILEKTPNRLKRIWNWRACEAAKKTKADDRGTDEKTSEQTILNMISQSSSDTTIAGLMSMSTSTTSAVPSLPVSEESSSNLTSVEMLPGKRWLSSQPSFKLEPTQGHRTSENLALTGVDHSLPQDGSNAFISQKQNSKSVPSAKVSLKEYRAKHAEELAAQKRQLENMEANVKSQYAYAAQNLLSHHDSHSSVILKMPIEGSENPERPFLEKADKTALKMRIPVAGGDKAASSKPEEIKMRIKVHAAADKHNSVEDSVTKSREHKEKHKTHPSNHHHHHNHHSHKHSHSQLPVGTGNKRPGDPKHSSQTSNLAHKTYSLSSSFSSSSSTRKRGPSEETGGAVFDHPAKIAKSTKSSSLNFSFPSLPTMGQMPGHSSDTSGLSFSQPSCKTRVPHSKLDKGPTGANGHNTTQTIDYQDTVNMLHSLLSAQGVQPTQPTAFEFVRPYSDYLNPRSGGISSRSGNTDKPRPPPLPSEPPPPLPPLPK
CDK9/cyclin T1, sequence (P50750 whole entry): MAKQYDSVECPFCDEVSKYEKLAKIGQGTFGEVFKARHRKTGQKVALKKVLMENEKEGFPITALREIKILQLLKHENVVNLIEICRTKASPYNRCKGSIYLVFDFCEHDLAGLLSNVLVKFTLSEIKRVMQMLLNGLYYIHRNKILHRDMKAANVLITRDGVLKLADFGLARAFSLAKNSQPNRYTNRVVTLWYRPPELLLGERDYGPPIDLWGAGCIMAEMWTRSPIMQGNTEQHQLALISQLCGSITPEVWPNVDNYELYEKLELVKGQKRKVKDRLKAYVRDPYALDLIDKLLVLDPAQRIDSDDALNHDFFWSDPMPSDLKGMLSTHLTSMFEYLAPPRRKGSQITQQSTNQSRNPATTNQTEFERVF

PANC-1 [4] = experiment: Antitumor activity against human PANC-1 cells xenografted in BALB/c nude mouse assessed as reduction in tumor growth rate at 10 mg/kg, ip administered for every other day for 4 weeks relative to control; assay type: functional; set-up: scale not given: the % may be the effect or the level left
[5] = Toxicity in BALB/c nude mouse assessed as no obvious change in body weight at 5 to 20 mg/kg, ip administered for every other day for 4 weeks; assay type: organism-based; details: in vivo, 672 h, dose 5-20 mg/kg
PANC-1 [6] = experiment: Induction of cell cycle arrest in human PANC-1 cells assessed as accumulation at G2M phase at 0.5 uM incubated for 24 hrs by propidium iodide staining based flow cytometric analysis (reference value: 2.16%); assay type: functional
PANC-1 [7] = experiment: Induction of apoptosis in human PANC-1 cells assessed as late apoptotic cells at 0.1 uM incubated for 48 hrs by Annexin-V-FITC/PI staining based flow cytometric analysis (reference value: 0.22%); assay type: functional
PANC-1 [8] = experiment: Induction of cell cycle arrest in human PANC-1 cells assessed as accumulation at G2M phase at 2.5 uM incubated for 24 hrs by propidium iodide staining based flow cytometric analysis (reference value: 2.16%); assay type: functional
PANC-1 [9] = experiment: Induction of cell cycle arrest in human PANC-1 cells assessed as accumulation at G1 phase at 0.5 uM incubated for 24 hrs by propidium iodide staining based flow cytometric analysis (reference value: 80.36%); assay type: functional
PANC-1 [10] = experiment: Induction of cell cycle arrest in human PANC-1 cells assessed as accumulation at S phase at 2.5 uM incubated for 24 hrs by propidium iodide staining based flow cytometric analysis (reference value: 17.48%); assay type: functional
PANC-1 [11] = experiment: Induction of cell cycle arrest in human PANC-1 cells assessed as accumulation at S phase at 0.1 uM incubated for 24 hrs by propidium iodide staining based flow cytometric analysis (reference value: 17.48%); assay type: functional
PANC-1 [12] = experiment: Induction of apoptosis in human PANC-1 cells assessed as necrotic cells at 0.5 uM incubated for 48 hrs by Annexin-V-FITC/PI staining based flow cytometric analysis (reference value: 0.59%); assay type: functional
PANC-1 [13] = experiment: Induction of apoptosis in human PANC-1 cells assessed as viable cells at 0.1 uM incubated for 48 hrs by Annexin-V-FITC/PI staining based flow cytometric analysis (reference value: 97.0%); assay type: functional; details: read-out: Activity
PANC-1 [14] = experiment: Induction of apoptosis in human PANC-1 cells assessed as viable cells at 0.5 uM incubated for 48 hrs by Annexin-V-FITC/PI staining based flow cytometric analysis (reference value: 97.0%); assay type: functional; details: read-out: Activity
PANC-1 [15] = experiment: Induction of apoptosis in human PANC-1 cells assessed as viable cells at 2.5 uM incubated for 48 hrs by Annexin-V-FITC/PI staining based flow cytometric analysis (reference value: 97.0%); assay type: functional; details: read-out: Activity
PANC-1 [16] = experiment: Induction of apoptosis in human PANC-1 cells assessed as necrotic cells at 2.5 uM incubated for 48 hrs by Annexin-V-FITC/PI staining based flow cytometric analysis (reference value: 0.59%); assay type: functional
PANC-1 [17] = experiment: Induction of apoptosis in human PANC-1 cells assessed as early apoptotic cells at 2.5 uM incubated for 48 hrs by Annexin-V-FITC/PI staining based flow cytometric analysis (reference value: 2.21%); assay type: functional
PANC-1 [18] = experiment: Antitumor activity against human PANC-1 cells xenografted in BALB/c nude mouse assessed as reduction in tumor growth rate at 20 mg/kg, ip administered for every other day for 4 weeks relative to control; assay type: functional; set-up: scale not given: the % may be the effect or the level left
PANC-1 [19] = experiment: Induction of cell cycle arrest in human PANC-1 cells assessed as accumulation at G1 phase at 0.1 uM incubated for 24 hrs by propidium iodide staining based flow cytometric analysis (reference value: 80.36%); assay type: functional
PANC-1 [20] = experiment: Inhibition of CDK9 expression in human PANC-1 cells incubated for 24 hrs by Western blot analysis; assay type: functional, cell-based; details: dose 0.1-2.5 µM
PANC-1 [21] = experiment: Induction of apoptosis in human PANC-1 cells assessed as early apoptotic cells at 0.1 uM incubated for 48 hrs by Annexin-V-FITC/PI staining based flow cytometric analysis (reference value: 2.21%); assay type: functional
PANC-1 [22] = experiment: Induction of apoptosis in human PANC-1 cells assessed as late apoptotic cells at 0.5 uM incubated for 48 hrs by Annexin-V-FITC/PI staining based flow cytometric analysis (reference value: 0.22%); assay type: functional
[23] = Toxicity in BALB/c nude mouse xenografted with human PANC-1 cells assessed as mortality at 5 to 20 mg/kg, ip administered for every other day for 4 weeks; assay type: organism-based; details: in vivo, 672 h, dose 5-20 mg/kg
PANC-1 [24] = experiment: Antitumor activity against human PANC-1 cells xenografted in BALB/c nude mouse assessed as reduction in tumor growth rate at […], ip administered for every other day for 4 weeks relative to control; assay type: functional; set-up: scale not given: the % may be the effect or the level left
PANC-1 [25] = experiment: Downregulation of RNAPII phosphorylation level in human PANC-1 cells at 0.5 uM incubated for 24 hrs by Western blot analysis; assay type: functional, cell-based
PANC-1 [26] = experiment: Induction of apoptosis in human PANC-1 cells assessed as early apoptotic cells at 0.5 uM incubated for 48 hrs by Annexin-V-FITC/PI staining based flow cytometric analysis (reference value: 2.21%); assay type: functional
PANC-1 [27] = experiment: Induction of cell cycle arrest in human PANC-1 cells assessed as accumulation at G1 phase at 2.5 uM incubated for 24 hrs by propidium iodide staining based flow cytometric analysis (reference value: 80.36%); assay type: functional
PANC-1 [28] = experiment: Induction of cell cycle arrest in human PANC-1 cells assessed as accumulation at G2M phase at 0.1 uM incubated for 24 hrs by propidium iodide staining based flow cytometric analysis (reference value: 2.16%); assay type: functional
PANC-1 [29] = experiment: Induction of apoptosis in human PANC-1 cells assessed as late apoptotic cells at 2.5 uM incubated for 48 hrs by Annexin-V-FITC/PI staining based flow cytometric analysis (reference value: 0.22%); assay type: functional
PANC-1 [30] = experiment: Induction of apoptosis in human PANC-1 cells assessed as necrotic cells at 0.1 uM incubated for 48 hrs by Annexin-V-FITC/PI staining based flow cytometric analysis (reference value: 0.59%); assay type: functional
[31] = Toxicity in BALB/c nude mouse xenografted with human PANC-1 cells assessed as no tissue lesions and necrosis at 5 to 20 mg/kg, ip administered for every other day for 4 weeks; assay type: organism-based; details: in vivo, 672 h, dose 5-20 mg/kg
PANC-1 [32] = experiment: Induction of cell cycle arrest in human PANC-1 cells assessed as accumulation at S phase at 0.5 uM incubated for 24 hrs by propidium iodide staining based flow cytometric analysis (reference value: 17.48%); assay type: functional
[33] = Downregulation of RNAPII phosphorylation level in human PANC-1 cells at 2.5 uM incubated for 24 hrs by Western blot analysis; assay type: functional

SMILES: O=C(NCCF)c1ccc(Nc2nccc(-c3ccc(F)cc3OCc3ccccc3)n2)cc1
- IC50 (HCT-116): 17600 nM
- IC50 (PANC-1 [1]): 52500 nM
- IC50 (A-431): 37100 nM
- IC50 (L02): 35400 nM
- IC50 (NCI-H1975): 28500 nM

SMILES: COc1cc(F)ccc1-c1ccnc(NC(=O)[C@H]2CCC[C@@H](NC(C)=O)C2)c1
- IC50 [2]: 2460 nM

SMILES: O=C(O)c1ccc(Nc2nccc(-c3ccc(F)cc3OCc3ccccc3)n2)cc1
- IC50 (HCT-116): 9690 nM
- Selectivity Index (Homo sapiens): 7.4
- IC50 [3]: 636 nM
- IC50 (PANC-1 [1]): 12700 nM
- IC50 (A-431): 7280 nM
- IC50 (CDK9/cyclin T1): 86.2 nM
- IC50 (L02): 22200 nM
- IC50 (NCI-H1975): 8350 nM

SMILES: CN(C)CCNC(=O)c1ccc(Nc2nccc(-c3ccc(F)cc3OCc3ccccc3)n2)cc1
- Activity (PANC-1 [4]): 32.6%
- Activity [5]: Non-Toxic
- Activity (PANC-1 [6]): 25.85%
- Activity (PANC-1 [7]): 19.9%
- Activity (PANC-1 [8]): 34.26%
- IC50 (A549): 660 nM
- IC50 (HCT-116): 90 nM
- Activity (PANC-1 [9]): 53.9%
- Activity (PANC-1 [10]): 19.73%
- Activity (PANC-1 [11]): 22.92%
- Activity (PANC-1 [12]): 5.78%
- Selectivity Index (Homo sapiens): 84.3
- viability at 0.1 µM (PANC-1 [13]): 52.4%
- viability at 0.5 µM (PANC-1 [14]): 40.1%
- IC50 [3]: 876 nM
- viability at 2.5 µM (PANC-1 [15]): 29.8%
- Activity (PANC-1 [16]): 4.35%
- Activity (PANC-1 [17]): 8.44%
- Activity (PANC-1 [18]): 54.2%
- IC50 (PANC-1 [1]): 80 nM
- IC50 (A-431): 100 nM
- Activity (PANC-1 [19]): 55.25%
- inhibition (PANC-1 [20]): Dose-Dependent Effect
- Activity (PANC-1 [21]): 23.7%
- IC50 (CDK9/cyclin T1): 10.4 nM
- Activity (PANC-1 [22]): 45.7%
- Activity [23]: Non-Toxic
- Activity (PANC-1 [24]): 6.2%
- IC50 (L02): 1430 nM
- IC50 (NCI-H1975): 430 nM
- Activity (PANC-1 [25]): Active
- Activity (PANC-1 [26]): 8.41%
- Activity (PANC-1 [27]): 46.01%
- Activity (PANC-1 [28]): 21.83%
- Activity (PANC-1 [29]): 57.4%
- Activity (PANC-1 [30]): 4.07%
- Activity [31]: Non-Toxic
- Activity (PANC-1 [32]): 20.25%
- inhibition at 2.5 µM [33]: 100%

SMILES: O=C(NCCN1CCOCC1)c1ccc(Nc2nccc(-c3ccc(F)cc3OCc3ccccc3)n2)cc1
- IC50 (HCT-116): 18000 nM
- IC50 (PANC-1 [1]): 16500 nM
- IC50 (A-431): 16600 nM
- IC50 (L02): 18900 nM
- IC50 (NCI-H1975): 10600 nM

Further compounds by falling IC50 (HCT-116), results first:

- IC50 (A549): 3800 nM
- IC50 (HCT-116): 3300 nM
- IC50 (PANC-1 [1]): 3900 nM
- IC50 (A-431): 2840 nM
- IC50 (NCI-H1975): 1150 nM
SMILES: CNCCNC(=O)c1ccc(Nc2nccc(-c3ccc(F)cc3OCc3ccccc3)n2)cc1
- IC50 (L02): 18600 nM

- IC50 (A549): 4040 nM
- IC50 (HCT-116): 2750 nM
- IC50 (PANC-1 [1]): 2000 nM
- IC50 (A-431): 2520 nM
- IC50 (NCI-H1975): 2710 nM
SMILES: O=C(NCCCN1CCOCC1)c1ccc(Nc2nccc(-c3ccc(F)cc3OCc3ccccc3)n2)cc1
- IC50 (L02): 14400 nM

- IC50 (A549): 8470 nM
- IC50 (HCT-116): 1270 nM
- IC50 (PANC-1 [1]): 1600 nM
- IC50 (A-431): 1840 nM
- IC50 (NCI-H1975): 5830 nM
SMILES: O=C(NCCN1CCCCC1)c1ccc(Nc2nccc(-c3ccc(F)cc3OCc3ccccc3)n2)cc1
- IC50 (L02): 3020 nM

- IC50 (HCT-116): 260 nM
- IC50 (PANC-1 [1]): 110 nM
- IC50 (A-431): 340 nM
- IC50 (NCI-H1975): 720 nM
SMILES: COc1cc(F)ccc1-c1ncnc(Nc2cccc(C[S@](C)(=N)=O)c2)n1 [ATUVECICLIB]
- IC50 (L02): 2550 nM
